According to PubChem BioAssay (NCI):
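These data come from cells grown in 96-well plates and exposed to compound for 48 hours at five concentrations. At the TGI there is no net growth.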

What was measured:
Test in all cases: growth of human tumour cells (NCI), 48 h
OVCAR-3 ovarian = test system: OVCAR-3 ovarian
OVCAR-5 ovarian = test system: OVCAR-5 ovarian
786-0 renal = test system: 786-0 renal
SR leukemia = test system: SR leukemia
IGROV1 ovarian = test system: IGROV1 ovarian
SNB-75 CNS = test system: SNB-75 CNS
MALME-3M melanoma = test system: MALME-3M melanoma
NCI/ADR-RES ovarian = test system: NCI/ADR-RES ovarian
HCT-116 colon = test system: HCT-116 colon
M14 melanoma = test system: M14 melanoma
COLO 205 colon = test system: COLO 205 colon
UACC-62 melanoma = test system: UACC-62 melanoma
SF-295 CNS = test system: SF-295 CNS
A549 NSCLC = test system: A549 NSCLC
CCRF-CEM leukemia = test system: CCRF-CEM leukemia
SNB-19 CNS = test system: SNB-19 CNS
MDA-MB-435 = test system: MDA-MB-435
TK-10 renal = test system: TK-10 renal
HCT-15 colon = test system: HCT-15 colon
RXF 393 renal = test system: RXF 393 renal
DU-145 prostate = test system: DU-145 prostate
NCI-H522 lung = test system: NCI-H522 lung
OVCAR-4 ovarian = test system: OVCAR-4 ovarian
MDA-N = test system: MDA-N
MDA-MB-231 breast = test system: MDA-MB-231 breast
SK-MEL-2 melanoma = test system: SK-MEL-2 melanoma
PC-3 prostate = test system: PC-3 prostate
LOX IMVI melanoma = test system: LOX IMVI melanoma
HS 578T breast = test system: HS 578T breast
A498 renal = test system: A498 renal
SW-620 colon = test system: SW-620 colon
U251 CNS = test system: U251 CNS
BT-549 breast = test system: BT-549 breast
SF-268 CNS = test system: SF-268 CNS
HOP-62 NSCLC = test system: HOP-62 NSCLC
SN12C renal = test system: SN12C renal
HL-60(TB) leukemia = test system: HL-60(TB) leukemia
RPMI-8226 leukemia = test system: RPMI-8226 leukemia
SK-MEL-28 melanoma = test system: SK-MEL-28 melanoma
OVCAR-8 ovarian = test system: OVCAR-8 ovarian
UO-31 renal = test system: UO-31 renal
KM12 colon = test system: KM12 colon
HT29 colon = test system: HT29 colon
EKVX NSCLC = test system: EKVX NSCLC
HOP-92 NSCLC = test system: HOP-92 NSCLC
CAKI-1 renal = test system: CAKI-1 renal
SF-539 CNS = test system: SF-539 CNS
NCI-H460 lung = test system: NCI-H460 lung
ACHN renal = test system: ACHN renal
UACC-257 melanoma = test system: UACC-257 melanoma
T-47D breast = test system: T-47D breast
NCI-H23 lung = test system: NCI-H23 lung
SK-MEL-5 melanoma = test system: SK-MEL-5 melanoma
K-562 leukemia = test system: K-562 leukemia
MOLT-4 leukemia = test system: MOLT-4 leukemia
NCI-H226 lung = test system: NCI-H226 lung
MCF7 breast = test system: MCF7 breast
HCC-2998 colon = test system: HCC-2998 colon
SK-OV-3 ovarian = test system: SK-OV-3 ovarian

Measured: TGI

COc1ccc(C2N(c3ccc(F)cc3)C(=O)N3C(c4ccc(OC)cc4)N(c4ccc(F)cc4)C(=O)N23)cc1 (stereo not drawn)
not listed: K-562 leukemia | MOLT-4 leukemia | NCI-H226 lung | MCF7 breast | HCC-2998 colon | SK-OV-3 ovarian
> 100 µM: all other assays above

C=CCn1c(-c2ccc([N+](=O)[O-])cc2)cs/c1=N\C(P(=O)(O)O)P(=O)(O)O
90.6 µM: HL-60(TB) leukemia
not listed: OVCAR-4 ovarian | SK-MEL-2 melanoma | SN12C renal | T-47D breast
> 100 µM: all other assays above
